We go through two compounds from patent US20110281852A1 (priority 2010, published 2011).

One assay concerns SREBP-1. In words: Immunoblotting, SREBP-1 protein in 3T3-L1. It counts as cell-based, mouse. The following applies: 8 days. As for the experimental part: Immunoblotting: Protein expression of SREBP-1, PPARγ, and C/EBPα relative to […] was assessed by Western Blot. Total proteins were isolated from 3T3-L1 cells treated with compounds or vehicles for 8 days. The cells were washed twice with PBS, lysed in a HEPES-Tx-PI buffer ([…], 5 mM EDTA, 350 mM Sucrose, 1 μg/ml leupeptin, 1 μg/ml pepstatin, 1% Triton-X, 1 mM PMSF), processed with 25G needles and centrifuged at 12,000 rpm for 5 min. Protein concentration was determined using the Micro BCA Protein Assay Kit (Fisher Scientific, Pittsburgh, Pa., USA) following the manufacturers instructions. 25 μg proteins were loaded and separated by electrophoresis using the BioRad Electrophoretic System (65 V for 7 hour). The proteins were then transferred to nitrocellulose membranes at 40 V overnight. The membrane was blocked for 1 hour at room temperature in 5% nonfat milk in Tris-buffered saline (TBS), then washed with Tween-20-TBS (TTBS, 0.1% Tween-20) three times (15 min, 5 min, 5 min), followed by incubation with primary antibodies SREBP-1 (dilution 1:200), PPARγ (dilution 1:200), C/EBPα (dilution 1:200) (all purchased from Santa Cruz Biotechnology, Santa Cruz, Calif., USA) and […] (dilution 1:1000, Sigma-Aldrich, St. Louis, Mo., USA) at room temperature for 2 hours. […]
In general terms: A western blot detects proteins with antibodies after separation by electrophoresis.

The subject of a further assay is PPARγ. The assay is described as follows: Real-Time RT-PCR, PPARγ mRNA in epididymal fat of FD mice. The assay is classed as in vivo, mouse. As for the experimental part:
RNA and protein purification and quantification from epididymal fat tissues: RNA and protein was isolated from 60 mg of epididymal fat tissues with Trizol (Invitrogen, Carlsbad, Calif., USA) following the protocol recommended by the manufacturers. RNA was dissolved in pure water and quantified at 260/280 nm, and sample integrity was checked by 1.5% agarose gel electrophoresis. Protein concentration was determined using the Micro BCA Protein Assay Kit (Fisher Scientific, Pittsburgh, Pa., USA) according to the manufacturer's instructions.
Quantitative Real-Time RT-PCR: Real-Time reverse transcriptase polymerase chain reaction (RT-PCR) analysis was used to measure mRNA expression of genes PPARγ, C/EBPα, GATA-2 and GATA-3 in the control of β-actin. Total RNA (0.8 μg) from each sample was used for a reverse transcription reaction using the TaqMan Reverse Transcription Reagents (Applied Biosystems, Foster City, Calif., USA) following the manufacturer's instructions. PCR was done using the SYBR green Master Mix (Applied Biosystems, Foster City, Calif., USA) following the manufacturer's instructions. The cycling conditions of amplification were as follows: an initial step of denaturation at 95° C. for 10 min, 40 cycles of denaturation at 95° C. for 30 s, annealing at 55° C. for 30 s, and elongation at 72° C. for 30 s. Real-Time PCR was performed using Mx3000P Real-Time Thermocyclers (Stratagene, La Jolla, Calif., USA). The relative mRNA levels of these genes were calculated by 2-delta delta CT method and normalized with control-treated groups.

Assay [1] is described as follows: Body weight gain, high-fat diet-induced obesity mice and normal diet mice. It counts as in vivo, mouse. The source says: Six mice per subgroup were obtained finally.
The subject of assay [2] is SERT promoter (5-HTTLPR alleles). The assay is described as follows: DRL (dual luciferase reporter) assay, SERT promoter activity of 5-HTTLPR alleles in RN46A cells. It counts as cell-based. The following applies: 2 μM evodiamine. The source says:
The PCR reaction to amplify the 5-HTTLPR alleles for sequencing and creation of reporter constructs contained primers different than those used for the genotyping experiment.
The primer sequences were described previously and are as follows: Forward primer 5′-[…]-3′ (SEQ ID NO:25) and Reverse primer 5′-[…]-3′ (SEQ ID NO:26) (Hu et al., Am J Hum Genet (2006) 78(5):815-826). The PCR products of the six 5-HTTLPR alleles (S, LG, LA, XS, XL-17, and XL-18) were subcloned into the TOPO TA cloning vector pCR2.1-TOPO (Invitrogen) and transformed to One Shot TOP10 competent E. coli cells according to the manufacturer's instructions. In the case of individuals heterozygous for 5-HTTLPR, resulting transformants were screened for the presence of the correct insert using the restriction enzyme EcoR I.
The resulting constructs, created and sequenced, in the pCR2.1-TOPO vector (S, LG, LA, XS, XL-17, and XL-18 alleles) were subcloned to the luciferase reporter vector pGL4.10 [luc2] (Promega) using standard molecular techniques. Additionally, each allele was cloned into pGL4.10 [luc2] in the backwards orientation to ensure that transcriptional effects were the result of consensus promoter sequences. […] The co-transfection with the 5-HTTLPR pGL4.10 constructs (firefly luciferase) and the pRL-SV40 vector (renilla luciferase) to the RN46A raphe-derived cell line using Lipofectamine 2000 (Invitrogen) was described previously. Expression was measured using the Dual-Luciferase Reporter Assay System (Promega) 24 h after transfection with passive lysis buffer.
Relative light units (RLU) for both the firefly and renilla luciferase was measured using a 20/20^n Luminometer (Turner Biosystems, Sunnyvale Calif. 94085) and the ratio between the firefly RLU to renilla RLU in each sample was determined. The values were all normalized to the (S) allele.
(In general: A reporter such as luciferase makes a cellular process visible.)

Turning to `COc1ccc2cc3[n+](cc2c1OC)CCc1cc2c(cc1-3)OCO2.[Cl-]` [berberine, Berberine (Chloride Form)], in the assay on SREBP-1 (8 μM berberine + 15 μM clozapine), the “decrease of SREBP-1 protein expression vs clozapine treated group” value worked out at 64.6%. For the same compound, the “decrease of SREBP-1 protein expression vs risperidone treated group” value with SREBP-1 (8 μM berberine + 50 μM risperidone) is recorded as 60.4%. Besides, the “reduction of PPARγ mRNA expression vs control treated group” value with PPARγ (0.75 mg/kg/day) is 56.1%; in the assay with PPARγ (1.5 mg/kg/day), 57.7%; in the assay with PPARγ (3 mg/kg/day) it was 78.3%. Besides, the body weight gain in assay [1] (FD mice, 0.75 mg/kg/day i.p., 36 days (control 4.3±0.6)) turned out to be 1.5±0.7 g/mouse; in assay [1] (FD mice, 1.5 mg/kg/day i.p., 36 days) it was 1.9±0.7 g/mouse; in assay [1] (FD mice, 3 mg/kg/day i.p., 36 days), 1.4±0.5 g/mouse; in assay [1] (ND mice, 3 mg/kg/day i.p., 36 days (control 2.3±0.9)), 2.5±0.7 g/mouse.

As to evodiamine, the “increase of SERT promoter activity vs vehicle” value in assay [2] (LA allele) stood at 171.5%; in assay [2] (LG allele), 288.5%; in assay [2] (S allele), 206.9%; in assay [2] (XL17 allele) it was 165.6%; in assay [2] (XL18 allele) it was 96.3%; in assay [2] (XS allele), 74.3%.
